System: UDP-glucuronosyltransferases (UGTs)
Experiment: Metabolic ratio
Type: in vivo, human
Settings: Child C patients

Structure (SMILES): OCc1ncc2n1-c1ccc(Cl)cc1C(c1ccccc1F)=NC2 [1′-Hydroxymidazolam]
- Decrease of the MR for glucuronide formation: approximately 80%
